Results: patent US12491170B2, “Stable treprostinil prodrugs” (United Therapeutics Corporation, priority 2020, dated 2025)
Like-named read-outs stand apart in the source and are kept apart here. Each block holds one compound with its values, some of them ahead of it.

Columns and labels:
[1] = rat
[2] = Stability in cryopreserved hepatocytes, dog; settings: for AUC: dog
[3] = Stability in cryopreserved hepatocytes, human; settings: for AUC: human
[4] = Stability in cryopreserved hepatocytes, rat; settings: for AUC: rat
[5] = Stability in human subcutaneous skin homogenate; settings: for AUC: human
[6] = dog
[7] = Stability in liver microsomes, rat
[8] = Stability in liver microsomes, human; settings: for AUC: human
[9] = Stability in liver microsomes, dog

- AUC [1]: 21.60 µmol·min/L
- Trep Concentration (μM) 0 min [2]: 0 µM
- Trep Concentration (μM) 15 min [2]: 0.0459 µM
- Trep Concentration (μM) 30 min [2]: 0.0824 µM
- Trep Concentration (μM) 60 min [2]: 0.136 µM
- Trep Concentration (μM) 120 min [2]: 0.198 µM
- AUC [2]: 14.60 µmol·min/L
- Trep Concentration (μM) 0 min [3]: 0 µM
- Trep Concentration (μM) 15 min [3]: 0.1 µM
- Trep Concentration (μM) 30 min [3]: 0.16 µM
- Trep Concentration (μM) 60 min [3]: 0.246 µM
- Trep Concentration (μM) 120 min [3]: 0.344 µM
- AUC [3]: 26.49 µmol·min/L
- Trep Concentration (μM) 0 min [4]: 0.0112 µM
- Trep Concentration (μM) 15 min [4]: 0.441 µM
- Trep Concentration (μM) 30 min [4]: 0.542 µM
- Trep Concentration (μM) 60 min [4]: 0.594 µM
- Trep Concentration (μM) 120 min [4]: 0.609 µM
- AUC [4]: 63.89 µmol·min/L
- Trep Concentration 0 min [5]: 0 µM
- Trep Concentration 30 min [5]: 0 µM
- Trep Concentration 60 min [5]: 0.019 µM
- Trep Concentration 120 min [5]: 0.03 µM
- AUC [5]: 1.76 µmol·min/L
- AUC [6]: 6.61 µmol·min/L
- Trep Concentration 0 min [7]: 0.12 µM
- Trep Concentration 10 min [7]: 0.24 µM
- Trep Concentration 20 min [7]: 0.29 µM
- Trep Concentration 30 min [7]: 0.38 µM
- Trep Concentration 60 min [7]: 0.54 µM
- Trep Concentration 0 min [8]: 0.048 µM
- Trep Concentration 10 min [8]: 0.087 µM
- Trep Concentration 20 min [8]: 0.092 µM
- Trep Concentration 30 min [8]: 0.1 µM
- Trep Concentration 60 min [8]: 0.16 µM
- AUC [8]: 6.43 µmol·min/L
- Trep Concentration 0 min [9]: 0.019 µM
- Trep Concentration 10 min [9]: 0.044 µM
- Trep Concentration 20 min [9]: 0.087 µM
- Trep Concentration 30 min [9]: 0.11 µM
- Trep Concentration 60 min [9]: 0.2 µM
Structure (SMILES): CCCCCC(CCC1C(O)CC2Cc3c(cccc3OCC(=O)O)CC21)OC(=O)CCC(=O)O (stereo not shown) [XX]

- AUC [1]: 0.41 µmol·min/L
- Trep Concentration (μM) 0 min [2]: 0 µM
- Trep Concentration (μM) 15 min [2]: 0.0727 µM
- Trep Concentration (μM) 30 min [2]: 0.111 µM
- Trep Concentration (μM) 60 min [2]: 0.19 µM
- Trep Concentration (μM) 120 min [2]: 0.258 µM
- AUC [2]: 19.88 µmol·min/L
- Trep Concentration (μM) 0 min [3]: 0 µM
- Trep Concentration (μM) 15 min [3]: 0.192 µM
- Trep Concentration (μM) 30 min [3]: 0.179 µM
- Trep Concentration (μM) 60 min [3]: 0.217 µM
- Trep Concentration (μM) 120 min [3]: 0.237 µM
- AUC [3]: 23.78 µmol·min/L
- Trep Concentration (μM) 0 min [4]: 0 µM
- Trep Concentration (μM) 15 min [4]: 0.00943 µM
- Trep Concentration (μM) 30 min [4]: 0.0122 µM
- Trep Concentration (μM) 60 min [4]: 0.0182 µM
- Trep Concentration (μM) 120 min [4]: 0.0273 µM
- AUC [4]: 2.05 µmol·min/L
- Trep Concentration 0 min [5]: 0 µM
- Trep Concentration 30 min [5]: 0.0159 µM
- Trep Concentration 60 min [5]: 0.0303 µM
- Trep Concentration 120 min [5]: 0.0592 µM
- AUC [5]: 3.62 µmol·min/L
- AUC [6]: 25.82 µmol·min/L
- Trep Concentration 0 min [7]: 0 µM
- Trep Concentration 10 min [7]: 0.00512 µM
- Trep Concentration 20 min [7]: 0.00637 µM
- Trep Concentration 30 min [7]: 0.009 µM
- Trep Concentration 60 min [7]: 0.0074 µM
- Trep Concentration 0 min [8]: 0.137 µM
- Trep Concentration 10 min [8]: 0.171 µM
- Trep Concentration 20 min [8]: 0.174 µM
- Trep Concentration 30 min [8]: 0.163 µM
- Trep Concentration 60 min [8]: 0.125 µM
- AUC [8]: 9.27 µmol·min/L
- Trep Concentration 0 min [9]: 0.17 µM
- Trep Concentration 10 min [9]: 0.325 µM
- Trep Concentration 20 min [9]: 0.433 µM
- Trep Concentration 30 min [9]: 0.451 µM
- Trep Concentration 60 min [9]: 0.558 µM
Structure (SMILES): CCCCCC(CCC1C(O)CC2Cc3c(cccc3OCC(=O)O)CC21)OC(=O)C(C)(C)C (stereo not shown) [XLIX]

- AUC [1]: 2.90 µmol·min/L
- Trep Concentration (μM) 0 min [2]: 0 µM
- Trep Concentration (μM) 15 min [2]: 0 µM
- Trep Concentration (μM) 30 min [2]: 0 µM
- Trep Concentration (μM) 60 min [2]: 0.00355 µM
- Trep Concentration (μM) 120 min [2]: 0.00371 µM
- AUC [2]: 0.27 µmol·min/L
- Trep Concentration (μM) 0 min [3]: 0 µM
- Trep Concentration (μM) 15 min [3]: 0.0152 µM
- Trep Concentration (μM) 30 min [3]: 0.0199 µM
- Trep Concentration (μM) 60 min [3]: 0.0215 µM
- Trep Concentration (μM) 120 min [3]: 0.0212 µM
- AUC [3]: 2.28 µmol·min/L
- Trep Concentration (μM) 0 min [4]: 0 µM
- Trep Concentration (μM) 15 min [4]: 0.0168 µM
- Trep Concentration (μM) 30 min [4]: 0.0209 µM
- Trep Concentration (μM) 60 min [4]: 0.0231 µM
- Trep Concentration (μM) 120 min [4]: 0.0216 µM
- AUC [4]: 2.41 µmol·min/L
- Trep Concentration 0 min [5]: 0 µM
- AUC [6]: 1.62 µmol·min/L
- Trep Concentration 0 min [7]: 0 µM
- Trep Concentration 10 min [7]: 0.0292 µM
- Trep Concentration 20 min [7]: 0.0421 µM
- Trep Concentration 30 min [7]: 0.0553 µM
- Trep Concentration 60 min [7]: 0.0719 µM
- Trep Concentration 0 min [8]: 0 µM
- Trep Concentration 10 min [8]: 0.0448 µM
- Trep Concentration 20 min [8]: 0.0686 µM
- Trep Concentration 30 min [8]: 0.0816 µM
- Trep Concentration 60 min [8]: 0.124 µM
- AUC [8]: 4.63 µmol·min/L
- Trep Concentration 0 min [9]: 0 µM
- Trep Concentration 10 min [9]: 0.0118 µM
- Trep Concentration 20 min [9]: 0.0187 µM
- Trep Concentration 30 min [9]: 0.0285 µM
- Trep Concentration 60 min [9]: 0.0499 µM
Structure (SMILES): CCCCCC(CCC1C(O)CC2Cc3c(cccc3OCC(=O)O)CC21)OCC (stereo not shown) [XLVII]

- AUC [1]: 20.24 µmol·min/L
- Trep Concentration (μM) 0 min [2]: 0 µM
- Trep Concentration (μM) 15 min [2]: 0.229 µM
- Trep Concentration (μM) 30 min [2]: 0.276 µM
- Trep Concentration (μM) 60 min [2]: 0.264 µM
- Trep Concentration (μM) 120 min [2]: 0.279 µM
- AUC [2]: 29.90 µmol·min/L
- Trep Concentration (μM) 0 min [3]: 0 µM
- Trep Concentration (μM) 15 min [3]: 0.502 µM
- Trep Concentration (μM) 30 min [3]: 0.512 µM
- Trep Concentration (μM) 60 min [3]: 0.45 µM
- Trep Concentration (μM) 120 min [3]: 0.482 µM
- AUC [3]: 53.76 µmol·min/L
- Trep Concentration (μM) 0 min [4]: 0.00925 µM
- Trep Concentration (μM) 15 min [4]: 0.494 µM
- Trep Concentration (μM) 30 min [4]: 0.511 µM
- Trep Concentration (μM) 60 min [4]: 0.505 µM
- Trep Concentration (μM) 120 min [4]: 0.499 µM
- AUC [4]: 56.67 µmol·min/L
- Trep Concentration 0 min [5]: 0 µM
- Trep Concentration 30 min [5]: 0.328 µM
- Trep Concentration 60 min [5]: 0.559 µM
- Trep Concentration 120 min [5]: 0.852 µM
- AUC [5]: 60.56 µmol·min/L
- AUC [6]: 19.90 µmol·min/L
- Trep Concentration 0 min [7]: 0.154 µM
- Trep Concentration 10 min [7]: 0.242 µM
- Trep Concentration 20 min [7]: 0.326 µM
- Trep Concentration 30 min [7]: 0.342 µM
- Trep Concentration 60 min [7]: 0.463 µM
- Trep Concentration 0 min [8]: 0.443 µM
- Trep Concentration 10 min [8]: 0.502 µM
- Trep Concentration 20 min [8]: 0.478 µM
- Trep Concentration 30 min [8]: 0.379 µM
- Trep Concentration 60 min [8]: 0.316 µM
- AUC [8]: 24.34 µmol·min/L
- Trep Concentration 0 min [9]: 0.102 µM
- Trep Concentration 10 min [9]: 0.199 µM
- Trep Concentration 20 min [9]: 0.309 µM
- Trep Concentration 30 min [9]: 0.353 µM
- Trep Concentration 60 min [9]: 0.483 µM
Structure (SMILES): CCCCCC(CCC1C(O)CC2Cc3c(cccc3OCC(=O)O)CC21)OC(=O)C1CCCN1 (stereo not shown) [XXXVI]
